Earlier results in US12668568B2, “Adamantanyl-substituted benzamide compounds and their use as P2X7 receptor antagonists” (The University of Sydney, priority 2018, dated 2026).

Conditions: literature log D7.4 values; cited from earlier work

Compound	log D7.4 of calibration standards
c1ccc(N(c2ccccc2)c2ccccc2)cc1 [triphenylamine]	5.74
Nc1ccccc1 [aniline]	0.90
CC(C)=O [acetone]	−0.24
